Experiments:
influenza virus = assay: microbe, parasite or virus in culture; assay type: cell-based, influenza virus (MDBK or MDCK cells); details: unidentified influenza virus, 72 h, read-out: CPE EC50, effective concentration to achieve 50% CPE inhibition, 3 days incubation, WST-8
[1] = biological target: cap-dependent endonuclease (RNP fraction containing PB1•PB2•PA complex) (Influenza A virus, UniProt P15659); assay: biochemical; details: RNP from A/WSN/33 virus, capped Cy3/BHQ2 30mer RNA substrate, 60 minutes at room temperature; read-out: CEN IC50

CC(C#N)N1CC(C2c3ccccc3CCc3ccccc32)n2ccc(=O)c(O)c2C1=O (centres unmarked) [Example 575]
EC50 (influenza virus): 87 nM
IC50 [1]: 58 nM

CC(C)N1C[C@H](C2c3ccccc3CCc3ccccc32)n2ccc(=O)c(O)c2C1=O [Example 576]
EC50 (influenza virus): 27 nM
IC50 [1]: 63 nM

COCCN1CN(C(c2ccccc2)c2ccccc2)n2c(CC#N)cc(=O)c(O)c2C1=O [Example 577]
EC50 (influenza virus): 337 nM
IC50 [1]: 233 nM

CC(C)N1CN(C(c2ccccc2)c2ccccc2)n2c(N)cc(=O)c(O)c2C1=O [Example 581]
EC50 (influenza virus): 480 nM
IC50 [1]: 83 nM

Reference: patent US9815835B2, “Substituted polycyclic carbamolypyridone derivative” (priority 2009, dated 2017)
